Test results as given in US6291683A, “N-arloxyethyl-alkylamines for the treatment of depression” (American Home Products Corp, priority 2000, dated 2001).
Where two headings read alike, the source gives them in different places.

Experiments:
serotonin transporter = biological target: T1, serotonin transporter (Rattus norvegicus, UniProt P31652); experiment: affinity for the serotonin transporter ([3H]-paroxetine binding, rat frontal cortical membranes); parameters: species or system rat (male Sprague-Dawley); conditions: for inhibition at 0.1 µM: @ .1 μM, read-out: ST (% Inhib. @ .1 μM)
T1 construct: frontal cortical membranes prepared from male Sprague-Dawley rats; from tissue; host or cells: frontal cortex membranes, male Sprague-Dawley rats
Procedure: Briefly, frontal cortical membranes prepared from male Sprague-Dawley rats were incubated with ^3 H-paroxetine (0.1 nM) for 60 min at 25° C. […] All reactions are terminated by the addition of ice cold Tris buffer followed by rapid filtration using a Tom Tech filtration device to separate bound from free ^3 H-paroxetine.

5-HT1A cloned receptor = biological target: T2, 5-HT1A cloned receptor (Homo sapiens, UniProt P08908); experiment: [35S]-GTPγS binding assay, 5-HT1A cloned receptor membrane fragments; format: biochemical; conditions: maximum agonist response defined by excess 8-OH-DPAT
T2 construct: expressed in transfected cells
T2 sequence (P08908 1-422): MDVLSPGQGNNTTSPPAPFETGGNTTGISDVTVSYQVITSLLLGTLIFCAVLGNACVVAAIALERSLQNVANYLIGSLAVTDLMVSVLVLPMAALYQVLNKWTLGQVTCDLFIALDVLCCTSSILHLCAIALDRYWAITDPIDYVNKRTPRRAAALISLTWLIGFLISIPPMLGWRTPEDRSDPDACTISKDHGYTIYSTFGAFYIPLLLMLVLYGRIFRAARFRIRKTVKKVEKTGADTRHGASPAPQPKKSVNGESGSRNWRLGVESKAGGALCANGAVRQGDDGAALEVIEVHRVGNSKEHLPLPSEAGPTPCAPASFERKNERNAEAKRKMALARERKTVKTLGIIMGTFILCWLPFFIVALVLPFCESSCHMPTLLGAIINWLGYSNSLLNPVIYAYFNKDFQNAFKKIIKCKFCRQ

human 5-HT1A receptor = biological target: T3, human 5-HT1A receptor (Homo sapiens, UniProt P08908); experiment: 5-HT1A receptor binding ([3H]8-OH-DPAT displacement, membranes of 5-HT1A.CHO cells)
T3 sequence (P08908 1-422): T2 sequence (P08908 1-422)
Procedure: Cells were maintained in DMEN supplemented with 10% fetal calf serum, non-essential amino acids and penicillin/ streptomycin.
Cells were grown to 95-100% confluency as a monolayer before membranes were harvested for binding studies. Cells were gently scraped from the culture plates, transferred to centrifuge tubes, and washed twice by centrifugation (2000 rpm for 10 min., 4° C.) in buffer (50 mM Tris; pH 7.5). The resulting pellets were aliquoted and placed at -80° C. On the day of assay, the cells were thawed on ice, and resuspended in buffer. Studies were conducted using [^3 H]8-OH-DPAT as the radioligand. The binding assay was performed in 96 well microtiter plates in a final total volume of 250 μL of buffer.

[1] = [3H]-paroxetine 0.1 nM, 60 min, 25° C
[2] = read-out: 5-HT1A (Ki), [3H]8-OH-DPAT 1.5 nM, 30 min, room temperature, CHO cell membranes

T1 sequence (P31652 whole entry): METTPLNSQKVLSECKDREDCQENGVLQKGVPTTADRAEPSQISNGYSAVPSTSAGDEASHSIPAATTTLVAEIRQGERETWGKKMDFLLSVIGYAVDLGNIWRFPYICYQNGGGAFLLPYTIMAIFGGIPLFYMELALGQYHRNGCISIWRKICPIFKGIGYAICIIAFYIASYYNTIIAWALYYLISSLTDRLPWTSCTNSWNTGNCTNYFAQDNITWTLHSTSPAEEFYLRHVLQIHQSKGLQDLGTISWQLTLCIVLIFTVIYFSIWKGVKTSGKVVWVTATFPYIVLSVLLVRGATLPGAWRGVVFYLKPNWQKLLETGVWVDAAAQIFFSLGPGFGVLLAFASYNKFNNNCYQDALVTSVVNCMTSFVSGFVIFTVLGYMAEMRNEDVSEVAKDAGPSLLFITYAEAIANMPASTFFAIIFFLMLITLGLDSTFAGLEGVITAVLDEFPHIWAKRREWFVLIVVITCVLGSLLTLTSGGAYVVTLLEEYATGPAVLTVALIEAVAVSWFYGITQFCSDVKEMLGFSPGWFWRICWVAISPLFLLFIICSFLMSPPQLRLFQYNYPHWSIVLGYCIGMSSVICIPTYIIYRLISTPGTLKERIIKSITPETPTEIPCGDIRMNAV

| Compound | Ki (serotonin transporter) [nM] | Emax (5-HT1A cloned receptor) [%] | inhibition at 0.1 µM (serotonin transporter; [1]) [%] | Ki (human 5-HT1A receptor) [nM] | Ki (human 5-HT1A receptor; [2]) [nM] | other results |
| --- | --- | --- | --- | --- | --- | --- |
| c1cc(OCCNCCc2c[nH]c3ccccc23)c2c(c1)OCCO2 [Example 6, [2-(2,3-Dihydrobenzo[1,4]dioxin-5-yloxy)-ethyl]-[2-(1H-indol-3-yl)-ethyl]-amine] | 12 | 100 | – | – | – | – |
| Fc1ccc2[nH]cc(CCCNCCOc3cccc4c3CCC4)c2c1 [Example 13a, [3-(5-Fluoro-1H-indol-3-yl)-propyl]-[2-(indan-4-yloxy)-ethyl]-amine] | – | – | 71 | 76.9 | – | – |
| c1ccc(OCCNCCCc2c[nH]c3ccccc23)cc1 [Example 13d, [3-(1H-indol-3-yl)-propyl]-[2-phenoxy-ethyl]-amine] | – | – | 26 | – | – | – |
| Fc1ccc2[nH]cc(CCCNCCOc3ccc4c(c3)CCC4)c2c1 [Example 14] | 56 | – | – | 158 | – | – |
| COc1ccccc1OC(C)CNCCCc1c[nH]c2ccc(F)cc12 (stereo not drawn) [Example 17, [3-(5-Fluoro-1H-indol-3-yl)-propyl]-[2-(2-methoxy-phenoxy)propyl]amine] | – | 97.5 | – | – | 14.5 | Ki (serotonin transporter; read-out: ST (Ki), [3H]-paroxetine 0.1 nM, 60 min, 25° C, Ki converted from IC50 (Cheng and Prusoff)): 16 nM |
| [3-(5-Fluoro-1H-indol-3-yl)-propyl]-[2-(2-methoxy-phenoxy)-2-phenyl-ethyl]- amine [Example 16] | – | – | – | – | 43.9 | Ki (serotonin transporter; [3H]-paroxetine 0.1 nM, 60 min, 25° C, Ki converted from IC50 (Cheng and Prusoff), read-out: ST (Ki)): 21 nM |
